Laboratory results as given in patent US20020065309A1, “Novel Bicyclic and tricyclic pyrrolidine derivatives as GnRH antagonists” (priority 1999, published 2002).

biological target: T1, human GnRH receptor (Homo sapiens, UniProt P30968); assay: GnRH radioligand binding assay; settings: 125I-LHRH-D-Trp6 radioligand; COS-1 cell membranes containing human GnRH receptors; 2 h at 4 C
T1 construct: expressed in transfected cells; host or cells: COS-1 cells infected with recombinant adenovirus; membrane preparation
T1 sequence (P30968 1-328): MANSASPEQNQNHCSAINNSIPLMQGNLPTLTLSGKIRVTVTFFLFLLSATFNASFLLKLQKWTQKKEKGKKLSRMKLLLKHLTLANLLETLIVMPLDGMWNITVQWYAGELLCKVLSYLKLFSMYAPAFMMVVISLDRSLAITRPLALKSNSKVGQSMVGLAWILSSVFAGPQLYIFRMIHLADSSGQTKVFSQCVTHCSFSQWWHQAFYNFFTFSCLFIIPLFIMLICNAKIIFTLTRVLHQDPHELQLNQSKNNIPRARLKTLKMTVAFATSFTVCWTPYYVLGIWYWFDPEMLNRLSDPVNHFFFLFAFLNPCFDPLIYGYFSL
Procedure: COS-1 cells infected with a recombinant adenovirus directing the expression of the human GnRH receptor were harvested 48 hours after virus infection using cell dissociation buffer from Gibco-BRL and pelleted by centrifugation (5 min., 1100 rpm in RC3B, […]). The pellet was suspended in 20 ml ice cold binding buffer (25 mM Tris HCl, pH 7.4, 0.1% sodium azide, 0.1% BSA) and homogenized using polytron (Tempest Virtishear, Virtis).
The homogenate was centrifuged for 12 min. at 14,500 rpm in a RC5B and the supernatant discarded. The pellet was re-homogenized in 20 ml of binding buffer and centrifuged. The final pellet was resuspended in a small volume of binding buffer such that the final protein concentration was approximately 1.5 mg/ml (according to Pierce-BCA Protein kit). Aliquots of membrane preparation could then be stored frozen at −70 C without significant loss of binding activity for future use.
Samples were diluted in binding buffer (25 mM Tris pH 7.5, 10 MM MgCl2, 0.01% NaN3, 0.1% BSA) for the assay. The radioligand used was ^125I-LHRH-D-TrP6, approximately 50-70,000 counts/25 μl Non-specific binding was determined using LHRH-D-TrP6 at a final concentration of 1 µM. Addition of GnRH membranes to the assay was optimized to give a signal-to-noise ratio of 10:1.
Twenty-five μl sample (4× final concentration), 50 μl membranes and 25 μl radioligand were incubated in a V-bottom 96-well plate with shaking for 2 h at 4 C. The incubated mixture was then filtered onto a Whatman GF/B membrane pre-treated with 0.1% poly(ethylene imine) using a Packard Cell Harvester. The filter was dried for approximately 10 min. at 37 C. Forty μl Microscint 20 was added and the radioactivity remaining on the filter was counted using a Topcount γ-counter.
Binding inhibition was calculated from the measured values using a concentration series of each test compound in the conventional manner.

Question: How did the IC50 turn out when `COc1ccc(CN2C[C@H]3C[C@H](c4ccc(N(C)C)c5ccccc45)N4C(=O)N(CCN5CCOCC5)C(=O)[C@]34C2)cc1NC(C)=O` (relative stereo) [Compound 36, N-{5-[((trans)-5-[4-(dimethylamino)-1-naphthyl]-2-(2-morpholin-4-ylethyl)-1,3-dioxohexahydro-1H-pyrrolo[3′,4′:2,3]pyrrolo[1,2-c]imidazol-8(9H)-yl)methyl]-2-methoxyphenyl}acetamide] was run?
Answer: The IC50 was roughly 21 nM.

Question: With `COc1ccc(CN2C[C@@H]3C[C@@H](c4ccc(N(C)C)c5ccccc45)N4C(=O)N(CCN5CCOCC5)C(=O)[C@@]34C2)cc1O` (relative stereo) [AF21276] as the compound, how does the IC50 read?
Answer: Its IC50 is 35 ± 6 nM.

Question: With `COc1ccc(CN2C[C@@H]3C[C@@H](c4ccc(N(C)C)c5ccccc45)N4C(=O)N(CCN5CCNCC5)C(=O)[C@@]34C2)cc1O` (relative stereo) [AF22352] as the compound, how does the IC50 read?
Answer: Its IC50 is roughly 1500 nM.

Question: For `CCOc1cc(CN2C[C@@H]3C[C@@H](c4ccc(N(C)C)c5ccccc45)N4C(=O)N(CCN5CCOCC5)C(=O)[C@@]34C2)ccc1O` (relative stereo) [AF20660], which IC50 is on record?
Answer: Its IC50 is 800 ± 110 nM.

Question: How did the IC50 turn out when `COc1cc(CN2C[C@@H]3C[C@@H](c4ccc(N(C)C)c5ccccc45)N4C(=O)N(CCN5CCOCC5)C(=O)[C@@]34C2)c(Br)c(Br)c1O` (relative stereo) [AF21278] was run?
Answer: Its IC50 is 280 ± 170 nM.

Question: Which IC50 does the source give for `O=C1N(CCN2CCOCC2)C(=O)[C@]23CNC[C@H]2C[C@H](c2cnc4ccccc4c2)N13` (relative stereo) [Compound 76, (trans)-2-(2-morpholin-4-ylethyl)-5-quinolin-3-ylhexahydro-1H-pyrrolo [3′,4′:2,3] pyrrolo [1,2-c]imidazole-1,3(2H)-dione] here?
Answer: The IC50 was roughly 270 nM.

Question: For `COc1ccc(CN2C[C@@H]3C[C@@H](c4ccc(N(C)C)cc4)N4C(=O)N(CCN5CCOCC5)C(=O)[C@@]34C2)cc1O` (relative stereo) [AF21479], which IC50 is on record?
Answer: The IC50 was roughly 160 nM.

Question: With `COc1ccc(CN2C[C@@H]3C[C@@H](c4ccc(OC)c5ccccc45)N4C(=O)N(CCN5CCOCC5)C(=O)[C@@]34C2)cc1O` (relative stereo) [AF21477] as the compound, how does the IC50 read?
Answer: The IC50 was roughly 612 nM.

Question: Which IC50 does the source give for `COc1ccc(CN2C[C@H]3C[C@H](c4ccc(N)c5ccccc45)N4C(=O)N(CCN5CCOCC5)C(=O)[C@]34C2)cc1O` (relative stereo) [Compound 17, (trans)-5-[4-amino-1-naphthyl]-8-(3-hydroxy-4-methoxybenzyl)-2-(2-morpholin-4-ylethyl)hexahydro-1H-pyrrolo[3′,4′:2,3]pyrrolo[1,2-c]imidazole-1,3(2H)-dione] here?
Answer: The IC50 was roughly 321 nM.

Question: For `COc1cc(Br)c(CN2C[C@@H]3C[C@@H](c4ccc(N(C)C)c5ccccc45)N4C(=O)N(CCN5CCOCC5)C(=O)[C@@]34C2)cc1O` (relative stereo) [AF21813], which IC50 is on record?
Answer: Its IC50 is roughly 80 nM.

Question: Which IC50 does the source give for `COc1ccc(CN2C[C@@H]3C[C@@H](c4ccc(N(C)C)c5ccccc45)N4C(=O)N(CCc5ccncc5)C(=O)[C@@]34C2)cc1O` (relative stereo) [AF22053] here?
Answer: Its IC50 is roughly 385 nM.

Question: How did the IC50 turn out when `COc1ccc(CN2C[C@H]3C[C@H](c4ccnc5ccccc45)N4C(=O)N(CCN5CCOCC5)C(=O)[C@]34C2)cc1O` (relative stereo) [Compound 73, (trans)-8-(3-hydroxy-4-methoxybenzyl)-2-(2-morpholin-4-ylethyl)-5-quinolin-4-ylhexahydro-1H-pyrrolo [3′, 4′:2,3]pyrrolo[1,2-c]imidazole-1,3(2H)-dione] was run?
Answer: The IC50 was roughly 1500 nM.
